Molecular target: T1, hKv4.3 current (Ito, KCND3) (Homo sapiens, UniProt Q9UK17)
T1 construct: expressed in transfected cells
T1 sequence (Q9UK17 1-655): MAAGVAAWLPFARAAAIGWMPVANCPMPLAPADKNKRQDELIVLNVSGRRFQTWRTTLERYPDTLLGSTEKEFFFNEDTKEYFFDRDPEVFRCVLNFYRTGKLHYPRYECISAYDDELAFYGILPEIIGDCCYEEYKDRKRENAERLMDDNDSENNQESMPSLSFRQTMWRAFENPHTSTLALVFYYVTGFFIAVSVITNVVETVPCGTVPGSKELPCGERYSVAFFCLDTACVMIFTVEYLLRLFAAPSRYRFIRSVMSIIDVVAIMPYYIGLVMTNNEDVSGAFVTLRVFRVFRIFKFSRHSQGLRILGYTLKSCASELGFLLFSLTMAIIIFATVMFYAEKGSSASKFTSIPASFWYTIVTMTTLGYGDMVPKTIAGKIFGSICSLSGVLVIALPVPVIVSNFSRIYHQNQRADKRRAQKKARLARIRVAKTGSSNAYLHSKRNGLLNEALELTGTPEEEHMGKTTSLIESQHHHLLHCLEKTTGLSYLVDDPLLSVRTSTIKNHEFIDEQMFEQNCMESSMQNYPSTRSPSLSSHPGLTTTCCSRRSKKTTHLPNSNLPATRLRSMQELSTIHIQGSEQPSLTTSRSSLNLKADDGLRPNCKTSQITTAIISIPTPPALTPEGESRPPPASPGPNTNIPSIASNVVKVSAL
Test: Whole-cell patch clamp of hKv4.3 current in HEK 293 cells
Assay type: cell-based
Details: 30 μM, at +50 mV, n = 5
Experimental: Whole-cell currents of hKv1.5 and hKv4.3 were recorded in established HEK 293 cell lines stably expressing hKv1.5 (KCN5A) and hKv4.3 (KCND3) and IKACh was determined in isolated rat atrial myocytes as described previously[12][31][32] and in Supplemental Materials. […]
Effects of acacetin prodrug on cardiac potassium currents
Whole-cell currents of hKv1.5 and hKv4.3 were recorded in established HEK 293 cell lines stably expressing hKv1.5 (KCN5A) and hKv4.3 (KCND3).1, 2 The cells were cultured in Dulbecco’s modified eagle’s medium (DMEM, Invitrogen, Hong Kong) supplemented with 10% fetal bovine serum and 400 µg/mL G418. Cells on a coverslip were transferred to an open cell chamber (0.5 ml) mounted on the stage of an inverted microscope and superfused with Tyrode’s solution at 2 mL/min. The whole cell patch-clamp technique was used as described previously.1, 2 The whole-cell membrane currents were measured using an EPC-10 amplifier and Pulse software (Heka Elektronik, Lambrecht, Germany). Borosilicate glass electrodes (1.2-mm OD) were pulled with a Brown/Flaming puller (model P-97, Sutter Instrument, Nato, CA) and had resistances of 1.5~2.5 MΩ when filled with the pipette solution. A 3-M KCl agar bridge was used as the reference electrode. The tip potential was zeroed before the patch pipette contacted the cell. […]

## COc1ccc(-c2cc(=O)c3c(O)cc(OP(=O)([O-])[O-])cc3o2)cc1.[Na+].[Na+] [acacetin prodrug, phosphate sodium salt of acacetin]
  inhibition of hKv4.3 current: no significant inhibition
